How the values were obtained:
[1] = Adsorption/precipitation of SA or AEA in 10 wt % aqueous fly ash or cement slurries at pH 12.5; assay type: physicochemical; details: initial SA 3 mM
Protocol: Adsorption/Precipitation of Sacrificial Agents (SA) or Air Entrainment Agents (AEA) in 10 wt % Aqueous Fly Ash Slurries at pH 12.5:
(§1) The pH of the solutions were adjusted to 12.5 with NaOH.
Adsorption/Precipitation in FA or Cement Slurries: In this protocol, aqueous slurries containing 10 wt % FA or cement were prepared as described above, except that in this case, the cement was added directly into a solution of the SA or AEA in the following proportions: 3.0 g cement or FA, and 27 g of 3 mM sacrificial agent, or 27 g of 1050 mg/l AEA; the latter were prepared in the same way as in the precipitation test above. The residual (soluble) SA or AEA content in the solution was also determined by UV or COD.

[2] = Precipitation in slurry extract or leachate; assay type: physicochemical; details: pH 12.5, entries in parentheses
Protocol: as §1
Precipitation in slurry extract or leachate: To perform this test, FA or cement leachate were prepared in advance, by filtering two liters of a 10 wt % FA, or cement, slurry in 0.03N NaOH which had been left to stand under slow agitation for 30 min; 2.5 g of the filtrate solution was mixed with 22.5 g of the SA or AEA solution in a 50 ml polypropylene centrifuge tube; the latter was shaken vigorously in an orbital shaker (Eberbach Corporation) for 30 min at room temperature, centrifuged for 5 min and then the supernatant solution was filtered (0.45 μm). The SA or AEA content of the solution was determined using an Ultraviolet-Visible (UV) spectrometer or by COD (Chemical Oxygen Demand) measurement.
Entries in parentheses: % precipitation when reacted with solutions extracted from the fly ash slurries (Results in Table 5).

[3] = Paste air entrainment, Minimum air protocol
Protocol: (§2) Preparation of pastes: Pastes were prepared by pouring 400 g of cementitious powder in the 350-400 g of solution (water and additives) in a vessel (8.4 cm dia,×14.5 cm height) while gently stirring with a spatula; the exact quantity of water depends on the selected W/B ratio (see below); rapid hand mixing was continued for 1 minute, followed by intense stirring at 25° C. during 2 min using a hand-held mixer (BRAUN model MR400). The level of air entrained is dependent on the mode of utilisation of the mixer, namely the height of the mixer from the bottom of the vessel and the length of the mixing stroke; the following protocols were adopted.
Minimum air protocol: The BRAUN mixer is positioned at 1.0 inch from the bottom of the mixing vessel and the up-down motion of the mixer is limited to a 1.0 inch displacement; this provided ‘minimum air’ entrained air levels and is later referred to as ‘Minimum air protocol’ (Results reported in Table 6, col. 1 and Table 7).
(§3) Fluidity measurements: For all air entrainment measurements, the initial fluidity of the paste (without additives) was controlled using the ‘mini-slump’ procedure widely used for paste and grouts. In this protocol, a portion of the paste was transferred into the min-slump cone (a 2¼″ high, 1½″ bottom diameter, ¾″ top diameter cone); excess paste was skimmed-off with a straight; the cone was then raised and the spread diameter of the paste was recorded (average of two measurements). The fluidity is measured at 10 minutes after mixing. The paste is returned to the batch and reserved for subsequent AE measurements. The fluidity of the paste (without SA and AEA) is adjusted by changing the amount of water (water/cementitious ratio) which yields a spread diameter of 115±5 mm. The latter is monitored regularly.
(§4) Air entrainment measurements: For air entrainment measurements, a portion of the paste was transferred to overfill a Plexiglas cylinder (3¾ inches height, 2 inches interior diameter), which was then levelled flush to the top of the cylinder with a straight edge. The mass of the filled cylinder, minus the weight of the empty cylinder, is then recorded and used to calculate the amount of air according to the following formula: […]
(§5) This procedure was carried out at three times at 30 min. intervals (6, 36 and 66 min); the paste was let to stand at rest between measurements, and was stirred gently by hand for one minute prior to the subsequent air entrainment measurements.
Typical mixture compositions for air entrainment measurements in pastes containing a single additive using ‘Minimum air protocol’ (results shown in Table 6, col. 1): […]

[4] = Paste air entrainment, Maximum air protocol; details: PCA cement paste; 0.0125% SA or AEA alone; Maximum air protocol
Protocol: as §2, §3, §4, §5
Other combinations of air entrainment agents and sacrificial agents were prepared as stock solutions following the procedure outlined above, adjusting the weights of the various components to achieve the desired component ratios.

[5] = 10 wt % fly ash B1 (LOI 4.36%) slurry, Air 30/Air 40 0.105 wt %
[6] = 10 wt % fly ash C1, class C (LOI 1.62%) slurry, Air 30/Air 40 0.105 wt %
[7] = 10 wt % fly ash C2 (LOI 3.32%) slurry
[8] = 10 wt % fly ash M1 (LOI […]) slurry, Air 30/Air 40 0.105 wt %
[9] = 10 wt % fly ash M2 (LOI 5.34%) slurry, Air 30/Air 40 0.105 wt %
[10] = 10 wt % fly ash M3 (LOI 11.33%) slurry, Air 30/Air 40 0.105 wt %
[11] = 10 wt % fly ash N (LOI 0.30%) slurry
[12] = solution extracted from 10 wt % fly ash B1 (LOI 4.36%) slurry
[13] = solution extracted from 10 wt % fly ash C1, class C (LOI 1.62%) slurry
[14] = solution extracted from 10 wt % fly ash C2 (LOI 3.32%) slurry
[15] = solution extracted from 10 wt % fly ash M1 (LOI […]) slurry
[16] = solution extracted from 10 wt % fly ash M2 (LOI 5.34%) slurry
[17] = solution extracted from 10 wt % fly ash M3 (LOI 11.33%) slurry
[18] = solution extracted from 10 wt % fly ash N (LOI 0.30%) slurry

Row | SMILES | Adsorption (wt % Adsorbed) [1, 5] | Adsorption (wt % Adsorbed) [1, 6] | Adsorption (wt % Adsorbed) [1, 7] | Adsorption (wt % Adsorbed) [1, 8] | Adsorption (wt % Adsorbed) [1, 9] | Adsorption (wt % Adsorbed) [1, 10] | Adsorption (wt % Adsorbed) [1, 11] | Precipitation (wt % precipitated) [2, 12] | Precipitation (wt % precipitated) [2, 13] | Precipitation (wt % precipitated) [2, 14] | Precipitation (wt % precipitated) [2, 15] | Precipitation (wt % precipitated) [2, 16] | Precipitation (wt % precipitated) [2, 17] | Precipitation (wt % precipitated) [2, 18] | further results
1 | NCc1ccccc1 [BA, Benzylamine] | 25 wt % | 25 wt % | 20 wt % | 13 wt % | 23 wt % | 23 wt % | 16 wt % | 12 wt % | 11 wt % | 14 wt % | 11 wt % | 15 wt % | 13 wt % | 11 wt % | –
2 | O=C([O-])c1cccc2ccccc12.[Na+] [NA, 1-Naphthoic acid sodium salt] | 9 wt % | 61 wt % | 4 wt % | 90 wt % | 9 wt % | 12 wt % | 20 wt % | 0 wt % | 0 wt % | 0 wt % | 80 wt % | 0 wt % | 0 wt % | 0 wt % | Air entrained ([3]; 50:50 fly ash B1 (LOI 4.36%):PCA paste, 0.1 wt % Air 30 alone or with 0.05 wt % of the SA): 4 vol %; Air entrained ([3]; 50:50 fly ash C1 (LOI 1.62%):PCA paste, 0.1 wt % Air 30 alone or with 0.05 wt % of the SA): 5 vol %; Air entrained ([3]; 50:50 fly ash D (LOI […]):PCA paste, 0.1 wt % Air 30 alone or with 0.05 wt % of the SA): 6 vol %; Air entrained ([3]; 50:50 fly ash M1 (LOI […]):PCA paste, 0.1 wt % Air 30 alone or with 0.05 wt % of the SA): 6 vol %; Air entrained ([3]; 50:50 fly ash M2 (LOI 5.34%):PCA paste, 0.1 wt % Air 30 alone or with 0.05 wt % of the SA): 4 vol %; Air entrained ([3]; 50:50 fly ash M3 (LOI 11.33%):PCA paste, 0.1 wt % Air 30 alone or with 0.05 wt % of the SA): 5 vol %; Air entrained ([3]; 50:50 fly ash R (LOI […]):PCA paste, 0.1 wt % Air 30 alone or with 0.05 wt % of the SA): 4 vol %; Air entrained ([3]; PCA cement paste, 0.1% SA or AEA alone, Minimum air protocol): 0 vol %; Average of air entrained ([3]; over the fly ash:PCA pastes of Table 7, 0.1 wt % Air 30 alone or with 0.05 wt % of the SA): 5%; Air entrained [4]: 0 vol %

Source: US7892350B2, “Sacrificial agents for fly ash concrete” (Boral Material Technologies Inc., priority 2003, dated 2011)
